Source: patent US11014908B2, “Chemical compounds” (Pfizer Inc., priority 2018, dated 2021)

Legend:
HbS = target: T1, HbS (Homo sapiens, UniProt P68871+P69905, E7V); experiment: 'R'-'T' assay (conversion of oxy HbS to deoxy HbS under deoxygenating conditions); type: biochemical; details: 50% inhibition of HbS 'R'-'T' conversion; 3 uM HbS, <1% O2
T1 construct: HbS was obtained from the blood of homozygous S/S patients; from tissue; host or cells: red blood cells of homozygous S/S patients
Method in brief: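 Oxy HbS diluted to 3 µM in 100 mM potassium phosphate pH 7.4, incubated 1 h at room temperature with compound, then held under <1% O2 for 2 h. Conversion followed by background-corrected 415/430 nm absorbance ratio at 0, 90 and 120 min; percent effect normalized to tucaresol, IC50 from concentration series.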

[1] = test system: Red Blood Cells (RBCs) from treated animals; experiment: Single dose study in sickle Townes mice: RBC sickling under hypoxia; type: in vivo, mouse; details: 0.5 h, SCD mice, n=3
Procedure: In Vivo Studies Mouse Model
The effect of the compounds of the invention was evaluated in-male sickle Townes mice in a single dose study. Compounds of the invention were administered in amounts set out in Tables 7, 8 and 9 that follow by oral gavage. Control mice received vehicle. Blood (50 μL) was drawn at 0.5 h, 1 h, 4 h, 7 h, 10 h, and 24 h. To measure exposure in whole blood, 20 μL sample was used. Blood drawn at 0.5 h was also evaluated for cell sickling.
Red Blood Cells (RBCs) from treated animals were diluted to ˜10^7 cells/mL with 300 μL Hemeox solution in a 24-well plate and incubated in a hypoxia chamber, 5% CO2 and 3% O2 for 4 h. Cells were then fixed at room temperature for 30 minutes in sickling fixative solution and stained with TER119 alexa 488 conjugated antibody (BioLegend) for 30 minutes at room temperature, washed and plated at 50,000 cells/well with 200 μL of hemox buffer (TCS Scientific). Data were visualized using Graph Pad Prism (Version 5). Results are expressed as mean±standard error of the mean (SEM). Statistical analysis was made using a non-parametric one-way analysis of variance (ANOVA) followed by a Dunnett's multiple comparison. Significance was accepted when p<0.01.

Townes SCD mice = experiment: Chronic dosing study (BID, 15 days) in Townes SCD mice; type: in vivo, mouse; details: 200 mg/kg BID for 15 days, Townes SCD mice, vs vehicle; for sVCAM1, Change (decrease): ELISA
Procedure: Following 15 days of dosing, blood samples were collected from all animals to run in the Hemeox analyzer to generate oxygen affinity curves, complete blood analysis was performed using Idexx hematology Analyzer, and cell sickling assessed as described before. Soluble Vascular Adhesion Molecule 1 levels (sVCAM1) were assessed by Enzyme linked immunosorbent assay (ELISA) from R&D systems. Results are presented below in Tables 7, 8 and 9.

Hb in human whole blood = target: T2, Hb in human whole blood (Homo sapiens, UniProt P68871+P69905); experiment: Whole blood oxygen affinity assay (Hemox analyzer), human blood; details: 1 mM compound, 1 hour at 25 C, relative to DMSO
T2 construct: measured in human, dog, and mouse whole blood; from tissue; host or cells: human whole blood
Excerpt: Whole Blood Oxygen Affinity Assay
Oxygen affinity is a marker of the ability of Hb to bind and release oxygen in solution. It can be determined in whole blood by measuring the percentage of oxygenated and deoxygenated Hb present at a given oxygen concentration. Oxygen affinity is expressed as the p50, the partial pressure of oxygen at which 50% of the Hb in solution has oxygen bound, or the p20, the partial pressure of oxygen at which 20% of the Hb in solution has oxygen bound.
To determine the effects of compounds of the invention on oxygen affinity the p50 and p20 were measured in human, dog, and mouse whole blood using a Hemeox Analyzer (TCS Scientific). The blood was spiked with a compound of the invention to a concentration of 1 mM and incubated for 1 hour at 25 C with constant rotation. A concentration of 1 mM of compound was selected to approximate 20% hemoglobin occupancy in whole blood. Controls with the same concentration of DMSO, but no compound were incubated in the same way at the same time. Following incubation, samples were immediately assayed for oxygen affinity using the Hemox analyzer. Fifty μL of blood sample was diluted into 5 mL of hemox buffer (TCS Scientific), which had been pre-incubated to 37 C. Following dilution, samples were loaded into the analysis chamber, and fully oxygenated using compressed air. Once samples had reached an pO2 of >150 torr, the measurement was initiated by switching to N2, and the percent oxyhemoglobin as a function of partial pressure was recorded. The p20 and p50 of each sample were recorded from the instrument readout. Data are reported as the percent (%) change relative to DMSO according to the following calculations: […]

| SMILES | IC50 (HbS) | % Change in RBC Sickling ([1]; single dose 10 mg/kg oral gavage) | % Change in RBC Sickling ([1]; single dose 40 mg/kg oral gavage) | % Change in RBC Sickling ([1]; single dose 220 mg/kg oral gavage) | % Change in RBC Sickling ([1]; single dose 490 mg/kg oral gavage) | sVCAM1, Change (decrease) (Townes SCD mice) | Hb, Change (increase) (Townes SCD mice) | Hematocrit, Change (increase) (Townes SCD mice) | RBC sickling, Change (decrease) (Townes SCD mice) | RBCs, Change (increase) (Townes SCD mice) | Reticulocytes, Change (decrease) (Townes SCD mice) | p20, Change (decrease) (Townes SCD mice) | p50, Change (decrease) (Townes SCD mice) | Reduction in p20 (%) Human (Hb in human whole blood) | Reduction in p50 (%) Human (Hb in human whole blood) | % Change in RBC Sickling ([1]; single dose 30 mg/kg oral gavage) | % Change in RBC Sickling ([1]; single dose 100 mg/kg oral gavage) | % Change in RBC Sickling ([1]; single dose 300 mg/kg oral gavage) | % Change in RBC Sickling ([1]; single dose 900 mg/kg oral gavage) |
| --- | --- | --- | --- | --- | --- | --- | --- | --- | --- | --- | --- | --- | --- | --- | --- | --- | --- | --- | --- |
| C[C@H](Oc1cc2cc(F)ccc2nc1N)c1nc(O)ccc1-n1cccn1 [Example 58, 6-{(1S)-1-[(2-amino-6-fluoroquinolin-3-yl)oxy]ethyl}-5-(1H-pyrazol-1-yl)pyridin-2-ol] | 4.8 µM | −6.2% | 4.6% | 50.8% | 48.3% | 9.98 ± 7.1% decrease | 42.4 ± 4.2% increase | 30.9 ± 0.7% increase | 37.8 ± 9.0% decrease | 39.2 ± 9.3% increase | 54.7 ± 2.4% decrease | 84.4 ± 2.6% decrease | 53.7 ± 21.2% decrease | 24 ± 19% | 12 ± 9% |  |  |  |  |
| C[C@H](Oc1cc2cc(F)cc(F)c2nc1N)c1cc(C(=O)O)ccc1-n1cccn1 [Example 21, 3-{(1S)-1-[(2-amino-6,8-difluoroquinolin-3-yl)oxy]ethyl}-4-(1H-pyrazol-1-yl)benzoic Acid] | 4.62 µM |  |  |  |  | 6.57 ± 3.75% decrease | 43.7 ± 9.83% increase | 29.1 ± 11.2% increase | 30.8 ± 14.5% decrease | 44.6 ± 9.04% increase | 32.7 ± 9.37% decrease | 76.1 ± 13.9% decrease | 26.2 ± 9.7% decrease | 25 ± 9% | 14 ± 10% | 2.03% | −0.02% | 24.6% | 29.0% |
